The test system of this test is apyrase. Description: Screen for apyrase inhibitors (Method 1, in vitro phosphate-release absorbance assay). Particulars: inhibitor conc at 1 mM stock, 1 hr room temperature, absorbance 630 nm; rounded average of two assay results. Type of test: biochemical. The method, boiled down: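 Phosphate-release colorimetric assay (Windsor method) in 60 mM Hepes, 3 mM MgCl2, 3 mM CaCl2, 3 mM ATP, pH 6.5, with compound or DMSO control added. Released phosphate developed with ammonium molybdate and ascorbic acid/TCA, then stopped with citrate/acetic acid.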
As to `Cc1cccc(NS(=O)(=O)c2cc(C(=O)N3CCCc4ccccc43)ccc2C)c1` [I-438, 2-methyl-5-(1,2,3,4-tetrahydroquinoline-1-carbonyl)-N-(m-tolyl)benzenesulfonamide], the “% Inhibition of Apyrase” value is 63%.

In the case of `O=C(Nc1cccc(S(=O)(=O)Nc2ccccc2Cl)c1)c1ccc(Cl)nc1` [I-746, 6-chloro-N-(3-(N-(2-chlorophenyl)sulfamoyl)phenyl)nicotinamide], the “% Inhibition of Apyrase” value turned out to be 45%.

As for `Cc1cc(C(=O)Nc2cccc(S(=O)(=O)Nc3ccccc3F)c2)c(C)n1C1CC1` [I-705, 1-cyclopropyl-N-(3-(N-(2-fluorophenyl)sulfamoyl)phenyl)-2,5-dimethyl-1H-pyrrole-3-carboxamide], the “% Inhibition of Apyrase” value is recorded as 64%.

`Cc1ccc(C(=O)Nc2ccc([N+](=O)[O-])cc2)cc1S(=O)(=O)Nc1ccc(Br)cc1` [I-6, 3-(N-(4-bromophenyl)sulfamoyl)-4-methyl-N-(4-nitrophenyl)benzamide]: the “% Inhibition of Apyrase” value was found to be 69%.

`COc1cc(OC)c(NS(=O)(=O)c2cc(C(=O)Nc3ccc(OC(F)(F)F)cc3)ccc2C)cc1Cl` [I-530, 3-(N-(5-chloro-2,4-dimethoxyphenyl)sulfamoyl)-4-methyl-N-(4-(trifluoromethoxy)phenyl)benzamide]: the “% Inhibition of Apyrase” value amounted to 55%.

As to `O=C(Nc1ccccc1[N+](=O)[O-])c1cc(S(=O)(=O)Nc2ccc(Br)cc2)ccc1Cl` [I-44, 5-(N-(4-bromophenyl)sulfamoyl)-2-chloro-N-(2-nitrophenyl)benzamide], the “% Inhibition of Apyrase” value is 13%.

Regarding `COc1ccc(NS(=O)(=O)c2cccc(C(=O)Nc3ccc(OC(F)F)cc3)c2)cc1` [I-460, N-(4-(difluoromethoxy)phenyl)-3-(N-(4-methoxyphenyl)sulfamoyl)benzamide], the “% Inhibition of Apyrase” value is reported as 60%.

As to `CC(=O)c1cccc(S(=O)(=O)Nc2cccc(C(=O)Nc3cccc(C(F)(F)F)c3)c2)c1` [I-319, 3-((3-acetylphenyl)sulfonamido)-N-(3-(trifluoromethyl)phenyl)benzamide], the “% Inhibition of Apyrase” value was 67%.

For the molecule `O=C(Nc1cccc(F)c1)c1ccc(NS(=O)(=O)c2ccccc2)cc1` [I-904, N-(3-fluorophenyl)-4-(phenylsulfonamido)benzamide], the “% Inhibition of Apyrase” value is 62%.

For `N#Cc1ccc(NC(=O)c2cccc(S(=O)(=O)Nc3ccc4c(c3)OCO4)c2)cc1` [I-187, 3-(N-(benzo[d][1,3]dioxol-5-yl)sulfamoyl)-N-(4-cyanophenyl)benzamide], the “% Inhibition of Apyrase” value was 67%.

`CCOc1ccc(NS(=O)(=O)c2cccc(NC(=O)c3cccnc3)c2)cc1Br` [I-751, N-(3-(N-(3-bromo-4-ethoxyphenyl)sulfamoyl)phenyl)nicotinamide]: the “% Inhibition of Apyrase” value came to 41%.

`O=C(Nc1cccc(Cl)c1)c1cccc(S(=O)(=O)Nc2ccc3c(c2)OCO3)c1` [I-197, 3-(N-(benzo[d][1,3]dioxol-5-yl)sulfamoyl)-N-(3-chlorophenyl)benzamide]: the “% Inhibition of Apyrase” value turned out to be 70%.

For `COc1ccc(Cl)cc1NS(=O)(=O)c1cccc(C(=O)N2CCc3ccccc32)c1` [I-520, N-(5-chloro-2-methoxyphenyl)-3-(indoline-1-carbonyl)benzenesulfonamide], the “% Inhibition of Apyrase” value came to 56%.

As to `O=C(Nc1ccc(Cl)cc1)c1cccc(S(=O)(=O)N2CCc3ccccc32)c1` [I-503, N-(4-chlorophenyl)-3-(indolin-1-ylsulfonyl)benzamide], the “% Inhibition of Apyrase” value worked out at 57%.

For the molecule `CN(c1ccccc1)S(=O)(=O)c1cc(C(=O)N2CCc3cc([N+](=O)[O-])ccc32)ccc1Cl` [I-477, 2-chloro-N-methyl-5-(5-nitroindoline-1-carbonyl)-N-phenylbenzenesulfonamide], the “% Inhibition of Apyrase” value is given as 58%.

Take `Cc1ccc(NC(=O)c2cccc(NS(=O)(=O)c3cccs3)c2)c(C)c1` [I-662, N-(2,4-dimethylphenyl)-3-(thiophene-2-sulfonamido)benzamide]: the “% Inhibition of Apyrase” value is on record as 26%.

For the origin of these results see patent US12685312B2, “Sulfonamide apyrase inhibitors” (Texas Crop Science, Inc., priority 2022, dated 2026).
